Consider 28 compounds from patent US20150289512A1, “METHOD FOR PROMOTING PLANT GROWTH” (SUMITOMO CHEMICAL COMPANY, LIMITED, priority 2012, published 2015).

The test deals with Nicotiana benthamiana. In words: Test Example 4: growth promotion under low-temperature stress by hydroponics of Nicotiana benthamiana, 10 ppm. The test is classed as in vivo. The note with it: 10 ppm in medium, low-temperature stress 7 days at 1.5±1.0° C., green leaf area 3 days later, equation (1). The gist of the method: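 Nicotiana benthamiana grown 7 days at 22 °C in half-strength Murashige-Skoog medium, pH 5.8, with compound at 10 ppm (DMSO 1/1,000 v/v), chilled 7 days at 1.5±1.0 °C, recovered 3 days at 22 °C. Green leaf area expressed relative to stressed and unstressed DMSO controls; ≥5 scored as mitigating.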
Regarding `O=C(NCc1ccccc1)c1cc2cc(C(F)(F)F)ccc2o1` [Compound 54], the relative leaf area at 10 ppm was at least 5%.
Consider `COC(=O)c1oc2ccc(C(F)(F)F)cc2c1N(C)C` [Compound 62], for which the relative leaf area at 10 ppm was at least 5%.
The same measure for `NC(=O)c1cc2cc(C(F)(F)F)ccc2o1` [Compound 51]: at least 5%; for `COC(=O)c1oc2ccccc2c1NC(=O)C(F)(F)F` [Compound 39]: at least 5%; for `O=C(Nc1ccccc1)c1cc2cc(C(F)(F)F)ccc2o1` [Compound 53]: at least 5%.
The same measure for `COC(=O)c1cc2ccccc2o1` [Compound 1]: at least 5%; for `COC(=O)c1oc2ccc(C(F)(F)F)cc2c1NS(C)(=O)=O` [Compound 67]: at least 5%.
As to `O=C(O)c1oc2ccc(C(F)(F)F)cc2c1C(F)(F)F` [Compound 69], the relative leaf area at 10 ppm is at least 5%.
The same measure for `O=C(O)c1cc2c(C(F)(F)F)cccc2o1` [Compound 43]: at least 5%; for `COC(=O)c1oc2ccc(C(F)(F)F)cc2c1NC(C)=O` [Compound 63]: at least 5%; for `COC(=O)c1oc2ccccc2c1N(C(C)=O)C(C)=O` [Compound 41]: at least 5%.
The same measure for `O=C(NCc1ccccc1)c1oc2ccc(C(F)(F)F)cc2c1C(F)(F)F` [Compound 77]: at least 5%; for `COC(=O)c1oc2ccc(C(F)(F)F)cc2c1N(C(C)=O)C(C)=O` [Compound 64]: at least 5%.
The same measure for `COC(=O)c1oc2ccccc2c1NC(C)=O` [Compound 40]: at least 5%; for `COC(=O)c1oc2ccc(C(F)(F)F)cc2c1NC(=O)C(F)(F)F` [Compound 65]: at least 5%; for `O=C(O)c1nc2c(F)cc(F)cc2s1` [Compound 86]: at least 5%.
`CCOC(=O)c1oc2ccc(C(F)(F)F)cc2c1C(F)(F)F` [Compound 71] returned a relative leaf area at 10 ppm of at least 5%.
`Cc1c(C(=O)O)oc2ccc(C(F)(F)F)cc12` [Compound 34]: the relative leaf area at 10 ppm is at least 5%.
On to `O=C(Oc1ccccc1)c1cc2cc(C(F)(F)F)ccc2o1` [Compound 55], for which the relative leaf area at 10 ppm was at least 5%.
In the case of `O=C(OCc1ccccc1)c1cc2cc(C(F)(F)F)ccc2o1` [Compound 56] it was at least 5%; in that of `CCOC(=O)c1cc2c(C(F)(F)F)cccc2o1` [Compound 44], at least 5%; in that of `CNC(=O)c1oc2ccc(C(F)(F)F)cc2c1C(F)(F)F` [Compound 75], at least 5%.
In the case of `O=C(O)c1cc2cc(Br)ccc2o1` [Compound 79] it was at least 5%; in that of `COC(=O)c1oc2ccc(C(F)(F)F)cc2c1C` [Compound 33], at least 5%; in that of `COC(=O)c1oc2ccccc2c1C(F)(F)F` [Compound 83], at least 5%.
`O=C(OCc1ccccc1)c1oc2ccc(C(F)(F)F)cc2c1C(F)(F)F` [Compound 73]: the relative leaf area at 10 ppm was at least 5%.
In the case of `O=C(O)c1oc2ccccc2c1C(F)(F)F` [Compound 82] it was at least 5%; in that of `NC(=O)c1oc2ccc(C(F)(F)F)cc2c1C(F)(F)F` [Compound 74], at least 5%.
